Experimental data reported in US10781227B2, “Application of metal complexes in anti-tumor and anti-bacterial therapy” (biolitec Unternehmensbeteiligungs II AG, priority 2018, dated 2020).

Key:
[1] = system: Staphylococcus aureus DSM 11729; assay: Antibacterial testing, colony-forming units after incubation with or without white light; type: cell-based; details: 100, 10 or 1 μM; for activity against S. aureus under irradiation: 30 min incubation, white light about 100 J/cm^2, CFU/ml; for activity/toxicity against S. aureus without light: no illumination, CFU/ml
Method: (§1) The organisms studied were Staphylococcus aureus DSM 11729, Gram-positive; Acinetobacter baumannii DSM30007, and Klebsiella pneumoniae DSM30104, both Gram-negative. Cultures cells are suspended in sterile phosphate-buffered saline (PBS) or sterile PBS supplemented with 10% sterile horse blood serum. The bacterial suspensions are placed into sterile black well plates with clear bottoms. Concentrations of photosensitizer used in the study were as follows: 100 μM, 10 μM and 1 μM. After an incubation time period of 30 minutes, the samples are exposed to white light, with a power density and irradiation time resulting in an energy fluency of about 100 J/cm^2. Control plates contained no photosensitizer and are not exposed to laser light. The control samples for dark toxicity are only exposed to photosensitizer without any illumination. After irradiation, the samples are removed and suspended again in the culture media. The numbers of colony-forming units (CFU/ml) are enumerated after an adequate incubation time period.

[2] = system: HT29, L929, A431, A253, CAL-27 and J774A.1 cell lines; assay: Cell test of photodynamic activity and light independent toxicity, XTT cell viability assay; type: cell-based, human, mouse; details: for activity against the cell lines under irradiation (phototoxicity): 2 or 10 μM photosensitizer, 24 h incubation, white light 50 J/cm^2, XTT after 24 h; for activity against the cell lines without light / toxicity against tumor cells in the absence of light: 2 or 10 μM; for activity against the cell lines without light: no irradiation (dark toxicity); for toxicity against tumor cells in the absence of light: no irradiation
Method: The photosensitizing activity was determined in the following cell lines: • HT29 (human colon adenocarcinoma cell line) • L929 (mouse fibroblast cell line) • A431 (human epidermoid carcinoma cell line) • A253 (submaxillary salivary gland, epidermoid cell line) • CAL-27 (human tongue squamous cell carcinoma cell line) • J774A.1 (Mouse BALB/c monocyte macrophage). The cell lines were grown in DMEM (PAA Laboratories GmbH) supplemented with 10% heat-inactivated fetal calf serum (FCS, PAA Laboratories GmbH), 1% penicillin (10000 IU) and streptomycin (10000 μg/ml, PAA Laboratories GmbH). Cells were kept as a monolayer culture in a humidified incubator (5% CO2 in air at 37° C.). A photosensitizer stock solution (2 mM) was performed in DMSO and was kept in the dark at 4° C. […] Cells were incubated with fresh medium (DMEM without phenol red) containing 10% FCS with 2 or 10 μM of the photosensitizer for 24 h before light exposure. Before photosensitization, cells were washed, cell culture medium was exchanged with DMEM without phenol red and 10% FCS, then irradiated at room temperature with white light source at a fixed fluence rate of about 100 mW/cm^2 (50 J/cm^2). Following irradiation, cells were incubated in a humidified incubator (5% CO2 in air at 37° C.) for 24 h until cell viability assay. […] Solution was stored in the dark at −20° C. until use. A sterile solution containing PMS ([…], Applichem GmbH) was needed as an activation reagent for the XTT. 0.383 mg PMS was dissolved in 1 ml PBS-Buffer. The solution should be stored frozen and should not be exposed to light. The XTT reagent solution was thawed in a 37° C. water bath and the activation solution (PMS) was added immediately prior to use. To prepare a reaction solution sufficient for one micro plate (96 wells), 0.1 ml activation solution (PMS) was given to 5 ml XTT reagent. The medium in the micro plate was exchanged with RPMI without phenol red and 10% FCS (100 μl) prior adding 50 μl XTT reaction solution per well. The micro plate was incubated for 2-3 hours at 37° C. and 5% CO2 until an orange dye was formed. The micro plate has been shaken gently to evenly distribute the dye in the wells. The absorbance of the samples was measured with a spectrophotometer (Infinite 200, Tecan Group Ltd.) at a wavelength of 490 nm.

[3] = system: Klebsiella pneumoniae DSM30104; assay: Antibacterial testing, colony-forming units after incubation with or without white light; type: cell-based; details: 100, 10 or 1 μM
Method: as §1

[4] = system: Staphylococcus aureus DSM 11729; Acinetobacter baumannii DSM30007; Klebsiella pneumoniae DSM30104; assay: Antibacterial testing, bacteria not specified; type: cell-based; details: PBS supplemented with 10% sterile horse blood serum
Method: as §1

Substance | activity against S. aureus under irradiation [1] | activity/toxicity against S. aureus without light [1] | activity against the cell lines under irradiation (phototoxicity) [2] | activity against the cell lines without light [2] | activity against K. pneumoniae under irradiation ([3]; 30 min incubation, white light about 100 J/cm^2, CFU/ml) | activity against K. pneumoniae without light ([3]; no illumination, CFU/ml) | antibacterial activity in the presence of complex media (serum addition) [4] | toxicity against tumor cells in the absence of light [2]
Tris[5-(4-β-D-thiogalactosyl)-2,3,5,6-tetrafluorophenyl)dipyrrinato gallium(III) [Example 4.5] | high activity | nearly no activity | high activity | no activity | – | – | – | –
Tris[5-(4-β-D-thioglucosyl)-2,3,5,6-tetrafluorophenyl)dipyrrinato gallium(III) [Example 4.3] | high activity | nearly no activity | high activity | no activity | high activity | nearly no activity | antibacterial activity is also observed | –
[bis(2,2′-bipyridyl(4-(hexyloxy)-2,3,5,6-tetrafluorophenyl)-dipyrrinato)]ruthenium(II) chloride [Example 4.6] | – | – | – | – | – | – | – | high toxicity
[bis(2,2′-bipyridyl(4-(prop-2-enylamino)-2,3,5,6-tetrafluorophenyl)-dipyrrinato)]ruthenium(II) chloride [Example 4.7] | – | high toxicity | – | – | – | – | antibacterial activity is also observed | high toxicity
[bis(2,2′-bipyridyl(4-(prop-2-enyloxy)-2,3,5,6-tetrafluorophenyl)-dipyrrinato)]ruthenium(II) chloride [Example 4.8] | – | high toxicity | – | – | – | – | – | high toxicity
